Reference: US10604531B2, “Enhancer of zeste homolog 2 inhibitors” (GLAXOSMITHKLINE INTELLECTUAL PROPERTY (NO.2) LIMITED, priority 2016, dated 2020)

Columns and labels:
[1] = molecular target: EZH2 within the PRC2 complex (FLAG-EZH2, EED, SUZ12, RbAp48, AEBP2) (Homo sapiens (Human), UniProt Q15910); experiment: EZH2 methyltransferase scintillation proximity assay (SPA), PRC2 complex; assay type: biochemical; conditions: 3H-SAM, biotinylated histone H3K27 peptide, 60 min at room temperature; values of 10 nM approach the assay's limit of detection
Sequence of EZH2 within the PRC2 complex (FLAG-EZH2, EED, SUZ12, RbAp48, AEBP2) (Q15910 whole entry): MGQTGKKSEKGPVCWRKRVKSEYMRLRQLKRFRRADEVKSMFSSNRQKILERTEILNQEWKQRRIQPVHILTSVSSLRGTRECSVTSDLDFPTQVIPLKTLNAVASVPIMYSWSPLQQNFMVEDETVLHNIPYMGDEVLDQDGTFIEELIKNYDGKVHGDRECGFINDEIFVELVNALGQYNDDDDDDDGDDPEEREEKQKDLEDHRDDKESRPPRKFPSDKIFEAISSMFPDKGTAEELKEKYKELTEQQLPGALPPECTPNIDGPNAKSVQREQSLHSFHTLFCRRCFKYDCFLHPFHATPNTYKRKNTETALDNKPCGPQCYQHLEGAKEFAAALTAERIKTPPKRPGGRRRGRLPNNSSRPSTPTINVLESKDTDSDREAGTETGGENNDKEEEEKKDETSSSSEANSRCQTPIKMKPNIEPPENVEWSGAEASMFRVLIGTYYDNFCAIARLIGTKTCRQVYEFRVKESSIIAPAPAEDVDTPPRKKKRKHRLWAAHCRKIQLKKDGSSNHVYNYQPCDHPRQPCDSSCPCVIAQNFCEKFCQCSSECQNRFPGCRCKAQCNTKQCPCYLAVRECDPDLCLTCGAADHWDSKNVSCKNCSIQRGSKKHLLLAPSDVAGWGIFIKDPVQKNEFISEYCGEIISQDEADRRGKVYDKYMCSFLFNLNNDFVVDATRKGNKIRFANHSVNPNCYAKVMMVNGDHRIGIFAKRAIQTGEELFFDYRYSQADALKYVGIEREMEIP
Sequence of EZH2 within the PRC2 complex (FLAG-EZH2, EED, SUZ12, RbAp48, AEBP2) (O75530 whole entry partner): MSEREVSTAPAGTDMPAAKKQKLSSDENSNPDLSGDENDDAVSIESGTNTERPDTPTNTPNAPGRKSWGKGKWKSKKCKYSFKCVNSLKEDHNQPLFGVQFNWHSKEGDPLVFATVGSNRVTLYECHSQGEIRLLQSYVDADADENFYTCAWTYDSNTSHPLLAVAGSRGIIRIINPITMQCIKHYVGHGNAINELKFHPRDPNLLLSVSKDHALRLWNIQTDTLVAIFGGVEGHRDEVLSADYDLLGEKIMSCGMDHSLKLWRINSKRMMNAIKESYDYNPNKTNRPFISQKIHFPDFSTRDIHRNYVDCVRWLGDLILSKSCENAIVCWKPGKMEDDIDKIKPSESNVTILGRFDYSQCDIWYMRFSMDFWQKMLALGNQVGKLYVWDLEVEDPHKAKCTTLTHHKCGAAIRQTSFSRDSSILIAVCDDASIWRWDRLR
Sequence of EZH2 within the PRC2 complex (FLAG-EZH2, EED, SUZ12, RbAp48, AEBP2) (Q15022 whole entry partner): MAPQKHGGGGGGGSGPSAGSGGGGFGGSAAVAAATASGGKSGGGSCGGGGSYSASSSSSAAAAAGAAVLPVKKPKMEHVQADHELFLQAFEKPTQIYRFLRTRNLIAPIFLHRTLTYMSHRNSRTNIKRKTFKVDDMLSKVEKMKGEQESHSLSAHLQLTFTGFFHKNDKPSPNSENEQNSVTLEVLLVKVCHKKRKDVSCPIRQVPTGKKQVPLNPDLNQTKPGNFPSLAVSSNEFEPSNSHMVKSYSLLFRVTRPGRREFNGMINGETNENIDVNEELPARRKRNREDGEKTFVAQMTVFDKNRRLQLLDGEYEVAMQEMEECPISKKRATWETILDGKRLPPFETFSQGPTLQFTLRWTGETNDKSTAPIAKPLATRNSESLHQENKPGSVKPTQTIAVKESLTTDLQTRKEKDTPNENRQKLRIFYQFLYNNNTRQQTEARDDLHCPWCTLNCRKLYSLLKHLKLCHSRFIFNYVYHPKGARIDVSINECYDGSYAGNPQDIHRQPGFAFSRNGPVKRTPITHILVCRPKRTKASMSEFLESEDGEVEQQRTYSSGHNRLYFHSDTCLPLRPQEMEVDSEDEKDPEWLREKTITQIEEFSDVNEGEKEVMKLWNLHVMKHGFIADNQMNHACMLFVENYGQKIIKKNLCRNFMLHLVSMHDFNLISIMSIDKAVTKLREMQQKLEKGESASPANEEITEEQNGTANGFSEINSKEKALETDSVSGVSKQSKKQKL
Sequence of EZH2 within the PRC2 complex (FLAG-EZH2, EED, SUZ12, RbAp48, AEBP2) (Q09028 whole entry partner): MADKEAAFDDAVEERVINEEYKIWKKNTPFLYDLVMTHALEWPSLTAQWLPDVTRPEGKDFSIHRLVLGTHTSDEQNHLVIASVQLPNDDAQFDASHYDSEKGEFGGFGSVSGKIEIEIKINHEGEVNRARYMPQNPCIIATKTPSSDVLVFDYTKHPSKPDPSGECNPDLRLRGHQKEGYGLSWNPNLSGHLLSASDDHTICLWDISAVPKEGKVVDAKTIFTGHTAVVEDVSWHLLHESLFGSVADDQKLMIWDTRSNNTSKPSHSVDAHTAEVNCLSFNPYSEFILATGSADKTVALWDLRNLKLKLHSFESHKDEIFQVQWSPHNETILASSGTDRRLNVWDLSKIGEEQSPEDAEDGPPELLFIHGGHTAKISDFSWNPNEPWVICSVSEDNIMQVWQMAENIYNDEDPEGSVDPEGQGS
Sequence of EZH2 within the PRC2 complex (FLAG-EZH2, EED, SUZ12, RbAp48, AEBP2) (Q6ZN18 whole entry partner): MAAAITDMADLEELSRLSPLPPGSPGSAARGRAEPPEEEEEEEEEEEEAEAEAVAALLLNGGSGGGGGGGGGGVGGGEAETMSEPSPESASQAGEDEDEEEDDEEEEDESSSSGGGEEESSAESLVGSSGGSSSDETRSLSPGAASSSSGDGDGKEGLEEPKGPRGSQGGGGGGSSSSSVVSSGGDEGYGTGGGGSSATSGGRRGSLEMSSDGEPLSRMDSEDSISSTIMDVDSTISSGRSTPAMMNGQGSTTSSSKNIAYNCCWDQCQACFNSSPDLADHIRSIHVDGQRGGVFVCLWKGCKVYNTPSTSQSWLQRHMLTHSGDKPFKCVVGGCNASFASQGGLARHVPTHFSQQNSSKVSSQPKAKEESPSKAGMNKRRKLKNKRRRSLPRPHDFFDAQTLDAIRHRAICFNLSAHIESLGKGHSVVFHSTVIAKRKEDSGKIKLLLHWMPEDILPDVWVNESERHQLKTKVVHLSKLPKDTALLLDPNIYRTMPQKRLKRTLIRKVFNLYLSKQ
Description: Compounds contained herein were evaluated for their ability to inhibit the methyltransferase activity of EZH2 within the PRC2 complex. Human PRC2 complex was prepared by co-expressing each of the 5 member proteins (FLAG-EZH2, EED, SUZ12, RbAp48, AEBP2) in Sf9 cells followed by co-purification. Enzyme activity was measured in a scintillation proximity assay (SPA) where a tritiated methyl group is transferred from 3H-SAM to a lysine residue on a biotinylated, unmethylated peptide substrate derived from histone H3. The peptides were captured on streptavidin-coated SPA beads and the resulting signal was read on a ViewLux plate reader.
Part A. Compound Preparation
• 1. Prepare 10 mM stock of compounds from solid in 100% DMSO. • 2. Set up an 11-point serial dilution (1:4 dilution, top concentration 10 mM) in 100% DMSO for each test compound in a 384 well plate leaving columns 6 and 18 for DMSO controls. • 3. Dispense 10 nL of compound from the dilution plate into reaction plates (Corning, 384-well polystyrene NBS, Cat #3673). Part B. Reagent Preparation Prepare the following solutions: • 1. 1× Base Buffer, 50 mM Tris-HCl, pH 8, 2 mM MgCl2: Per 1 L of base buffer, combine 1 M Tris-HCl, pH 8 (50 mL), 1 M MgCl2 (2 mL), and distilled water (948 mL). • 2. 1× Assay Buffer: Per 10 mL of 1× Assay Buffer, combine 1× Base Buffer (9.96 mL), 1 M DTT (40 uL), and 10% Tween-20 (1 uL) to provide a final concentration of 50 mM Tris-HCl, pH 8, 2 mM MgCl2, 4 mM DTT, 0.001% Tween-20. • 3. 2× Enzyme Solution: Per 10 mL of 2× Enzyme Solution, combine 1× Assay Buffer (9.99 mL) and 3.24 uM EZH2 5 member complex (6.17 uL) to provide a final enzyme concentration of 1 nM. • 4. SPA Bead Solution: Per 1 mL of SPA Bead Solution, combine Streptavidin coated SPA beads (PerkinElmer, Cat # RPNQ0261, 40 mg) and 1× Assay Buffer (1 mL) to provide a working concentration of 40 mg/mL. • 5. 2× Substrate Solution: Per 10 mL of 2× Substrate Solution, combine 40 mg/mL SPA Bead Solution (375 uL), 1 mM biotinylated histone H3K27 peptide (200 uL), 12.5 uM 3H-SAM (240 uL; 1 mCi/mL), 1 mM cold SAM (57 uL), and 1× Assay Buffer (9.13 mL) to provide a final concentration of 0.75 mg/mL SPA Bead Solution, 10 uM biotinylated histone H3K27 peptide, 0.15 uM 3H-SAM (˜12 uCi/mL 3H-SAM), and 2.85 uM cold SAM. • 6. 2.67× Quench Solution: Per 10 mL of 2.67× Quench Solution, combine 1× Assay Buffer (9.73 mL) and 10 mM cold SAM (267 uL) to provide a final concentration of 100 uM cold SAM. Part C. Assay Reaction in 384-well Grenier Bio-One Plates Compound Addition • 1. Stamp 10 nL/well of 1000× Compound to test wells (as noted above). • 2. Stamp 10 nL/well of 100% DMSO to columns 6 & 18 (high and low controls, respectively). Assay • 1. Dispense 5 uL/well of 1× Assay Buffer to column 18 (low control reactions). • 2. Dispense 5 uL/well of 2× Substrate Solution to columns 1-24 (note: substrate solution should be mixed to ensure homogeneous bead suspension before dispensing into matrix reservoir). • 3. Dispense 5 uL/well of 2× Enzyme Solution to columns 1-17, 19-24. • 4. Incubate the reaction for 60 min at room temperature. Quench • 1. Dispense 6 uL/well of the 2.67× Quench Solution to columns 1-24. • 2. Seal assay plates and spin for ˜1 min at 500 rpm. • 3. Dark adapt plates in the ViewLux instrument for 15-60 min. Read Plates • 1. Read the assay plates on the Viewlux Plate Reader utilizing the 613 nm emission filter or clear filter (300 s exposure). Reagent addition can be done manually or with automated liquid handler. Results
Percent inhibition was calculated relative to the DMSO control for each compound concentration and the resulting values were fit using standard IC50 fitting parameters within the ABASE data fitting software package.

[2] = for XRPD after DVS experiment: form change or change in crystallinity: post DVS sample

SMILES	IC50 [1] [nM]	further results
Cc1cc(C)c(CN2CCCc3sc([C@H](C)C4CCN(CC(C)(C)C)CC4)c(C)c3C2=O)c(=O)[nH]1 [Example 1, (R)-5-((4,6-Dimethyl-2-oxo-1,2-dihydropyridin-3-yl)methyl)-3-methyl-2-(1-(1-neopentylpiperidin-4-yl)ethyl)-5,6,7,8-tetrahydro-4H-thieno[3,2-c]azepin-4-one]	≤ 10	
Cc1cc(C)c(CN2CCCc3sc([C@H](C)C4CCN(CC5CCC5)CC4)c(C)c3C2=O)c(=O)[nH]1 [Example 2, (R)-2-(1-(1-(Cyclobutylmethyl)piperidin-4-yl)ethyl)-5-((4,6-dimethyl-2-oxo-1,2-dihydropyridin-3-yl)methyl)-3-methyl-5,6,7,8-tetrahydro-4H-thieno[3,2-c]azepin-4-one]	≤ 10	
Cc1cc(C)c(CN2CCCc3sc([C@H](C)C4CCN(CC(C)C)CC4)c(C)c3C2=O)c(=O)[nH]1 [Example 3, (R)-5-((4,6-Dimethyl-2-oxo-1,2-dihydropyridin-3-yl)methyl)-2-(1-(1-isobutylpiperidin-4-yl)ethyl)-3-methyl-5,6,7,8-tetrahydro-4H-thieno[3,2-c]azepin-4-one]	≤ 10	
Cc1cc(C)c(CN2CCCc3sc([C@H](C)C4CCN(CC5(C)CCC5)CC4)c(C)c3C2=O)c(=O)[nH]1 [Example 10, (R)-5-((4,6-Dimethyl-2-oxo-1,2-dihydropyridin-3-yl)methyl)-3-methyl-2-(1-(1-((1-methylcyclobutyl)methyl)piperidin-4-yl)ethyl)-5,6,7,8-tetrahydro-4H-thieno[3,2-c]azepin-4-one]	≤ 10	
Cc1cc(C)c(CN2CCCc3sc([C@H](C)C4CCN(CC5(C)CCC5)CC4)c(C)c3C2=O)c(=O)[nH]1.Cl [hydrochloric acid salt of (R)-5-((4,6-dimethyl-2-oxo-1,2-dihydropyridin-3-yl)methyl)-3-methyl-2-(1-(1-((1-methylcyclobutyl)methyl)piperidin-4-yl)ethyl)-5,6,7,8-tetrahydro-4H-thieno[3,2-c]azepin-4-one]		hygroscopicity ([2]; DVS isotherm 5-95% RH): low level of hygroscopicity; DVS moisture uptake ([2]; between 5-75% RH): ~0.5%; DVS total uptake of water ([2]; from 5-95% RH): 0.6%; XRPD after DVS experiment: form change or change in crystallinity [2]: did not show a change in crystal form or crystallinity
Cc1cc(C)c(CN2CCCc3sc([C@H](C)C4CCN(CC(C)(C)C)CC4)c(C)c3C2=O)c(=O)[nH]1.Cl [hydrochloric acid salt of (R)-5-((4,6-dimethyl-2-oxo-1,2-dihydropyridin-3-yl)methyl)-3-methyl-2-(1-(1-neopentylpiperidin-4-yl)ethyl)-5,6,7,8-tetrahydro-4H-thieno[3,2-c]azepin-4-one]		DVS total moisture uptake ([2]; first cycle from 40-75% RH): 0.5%; XRPD after DVS experiment: form change or change in crystallinity [2]: did not indicate a form change or change in crystallinity; DVS decrease ([2]; second cycle, between 80-90% RH): 0.4%; DVS sorption ([2]; second cycle, from 5-80% RH): 1.0%

Continued, in another order:

IC50 [1] [nM]	SMILES	further results
≤ 10	Cc1cc(C)c(CN2CCCc3sc([C@H](C)C4CCN(CC5CCCC5)CC4)c(C)c3C2=O)c(=O)[nH]1 [Example 4, (R)-2-(1-(1-(Cyclopentylmethyl)piperidin-4-yl)ethyl)-5-((4,6-dimethyl-2-oxo-1,2-dihydropyridin-3-yl)methyl)-3-methyl-5,6,7,8-tetrahydro-4H-thieno[3,2-c]azepin-4-one]	
≤ 10	CCC(C)(C)CN1CCC([C@@H](C)c2sc3c(c2C)C(=O)N(Cc2c(C)cc(C)[nH]c2=O)CCC3)CC1 [Example 5, (R)-5-((4,6-Dimethyl-2-oxo-1,2-dihydropyridin-3-yl)methyl)-2-(1-(1-(2,2-dimethylbutyl)piperidin-4-yl)ethyl)-3-methyl-5,6,7,8-tetrahydro-4H-thieno[3,2-c]azepin-4-one]	
≤ 10	Cc1cc(C)c(CN2CCCc3sc([C@H](C)C4CCN(CC(C)(C)F)CC4)c(C)c3C2=O)c(=O)[nH]1 [Example 6, (R)-5-((4,6-Dimethyl-2-oxo-1,2-dihydropyridin-3-yl)methyl)-2-(1-(1-(2-fluoro-2-methylpropyl)piperidin-4-yl)ethyl)-3-methyl-5,6,7,8-tetrahydro-4H-thieno[3,2-c]azepin-4-one]	
≤ 10	Cc1cc(C)c(CN2CCCc3sc([C@H](C)C4CCN(CC5CC5)CC4)c(C)c3C2=O)c(=O)[nH]1 [Example 7, (R)-2-(1-(1-(Cyclopropylmethyl)piperidin-4-yl)ethyl)-5-((4,6-dimethyl-2-oxo-1,2-dihydropyridin-3-yl)methyl)-3-methyl-5,6,7,8-tetrahydro-4H-thieno[3,2-c]azepin-4-one]	
≤ 10	Cc1cc(C)c(CN2CCCc3sc([C@H](C)C4CCN(CC5(C)CCCC5)CC4)c(C)c3C2=O)c(=O)[nH]1 [Example 8, (R)-5-((4,6-Dimethyl-2-oxo-1,2-dihydropyridin-3-yl)methyl)-3-methyl-2-(1-(1-((1-methylcyclopentyl)methyl)piperidin-4-yl)ethyl)-5,6,7,8-tetrahydro-4H-thieno[3,2-c]azepin-4-one]	
≤ 10	Cc1cc(C)c(CN2CCCc3sc([C@H](C)C4CCN(CC56CCC(CC5)CC6)CC4)c(C)c3C2=O)c(=O)[nH]1 [Example 9, (R)-2-(1-(1-(Bicyclo[2.2.2]octan-1-ylmethyl)piperidin-4-yl)ethyl)-5-((4,6-dimethyl-2-oxo-1,2-dihydropyridin-3-yl)methyl)-3-methyl-5,6,7,8-tetrahydro-4H-thieno[3,2-c]azepin-4-one]	
≤ 10	Cc1cc(C)c(CN2CCCc3sc([C@H](C)C4CCN(CC5(C)CC5)CC4)c(C)c3C2=O)c(=O)[nH]1 [Example 11, (R)-5-((4,6-Dimethyl-2-oxo-1,2-dihydropyridin-3-yl)methyl)-3-methyl-2-(1-(1-((1-methylcyclopropyl)methyl)piperidin-4-yl)ethyl)-5,6,7,8-tetrahydro-4H-thieno[3,2-c]azepin-4-one]	
